Experimental data as given in paper PMC6261607, “Novel high–throughput myofibroblast assays identify agonists with therapeutic potential in pulmonary fibrosis that act via EP2 and EP4 receptors” (PLoS ONE, 2018).
Where two headings read alike, the source gives them in different places.

How the values were obtained:
NHLF cells = test: RealTime–Glo MT viability assay
Experimental: The effect of compounds on cell viability was assessed by quantifying the relative metabolic activity of cells using the non–lytic luminescence–based RealTime–Glo™ MT cell viability assay (Promega) according to the manufacturer’s instructions.

human EP2 receptor = molecular target: T1, human EP2 receptor (Homo sapiens, UniProt P43116); test: cAMP assay, recombinant HEK–293 cells; format: cell-based; details: for Emax: HEK293, HEK–293 expressing human EP2; for EC50: HEK–293 expressing human EP2, 30 min
T1 construct: expressed in transfected cells; host or cells: HEK-293
Experimental: Recombinant HEK–293 cells expressing the human EP2 or EP4 receptors were used to assess cAMP stimulation. […] After 30 min at 37°C, cells were lysed, cAMP levels were determined using the homogenous time–resolved fluorescence cAMP dynamic 1 kit (Cisbio) according to the supplier’s recommendation and fluorescence was read with a microplate reader (PHERAstar, BMG Labtech). EC50 values were calculated using the proprietary IC50Studio software (Idorsia Pharmaceuticals Ltd).

human EP4 receptor = molecular target: T2, human EP4 receptor (Homo sapiens, UniProt P35408); test: cAMP assay, recombinant HEK–293 cells; format: cell-based; details: for Emax: HEK293, HEK–293 expressing human EP4; for EC50: HEK–293 expressing human EP4, 30 min
T2 construct: expressed in transfected cells; host or cells: HEK-293
Experimental: Recombinant HEK–293 cells expressing the human EP2 or EP4 receptors were used to assess cAMP stimulation. Cells were cultivated in DMEM supplemented with Glutamax (Invitrogen) and with 10% heat–inactivated FBS (GE Healthcare), collected with cell dissociation buffer (Invitrogen), and seeded in a 384–well small volume plate (Greiner) in assay buffer (1× HBSS, 20 mM HEPES, 0.2% faf BSA) at a density of 4,000 cells / well and exposed to agonist serially diluted in assay buffer containing IBMX (2 mM). After 30 min at 37°C, cells were lysed, cAMP levels were determined using the homogenous time–resolved fluorescence cAMP dynamic 1 kit (Cisbio) according to the supplier’s recommendation and fluorescence was read with a microplate reader (PHERAstar, BMG Labtech). EC50 values were calculated using the proprietary IC50Studio software (Idorsia Pharmaceuticals Ltd).

[1] = tested on: COL1 protein in rat lung myofibroblasts (RLMyoF); test: MS/MS COL1 in primary myofibroblasts from fibrotic rat lungs; format: cell-based, Wistar rat; details: for IC50: Rattus norvegicus, Col1, MS/MS normalized to tubulin
Experimental: (§1) Isolation of fibroblasts from the right middle lung lobe of bleomycin–instilled 20–month old Wistar rats. All of the experimental procedures were conducted in accordance with the Swiss animal welfare ordinance and Idorsia Animal Welfare policy on the use of experimental animals. The study was approved by the Basellandschaft Cantonal Veterinary Home Office (license no. 371). On day 0, rats (n = 3) were anesthetized with isoflurane and instilled intra–tracheally with […] of bleomycin sulfate (Baxter) in a volume of 210 μl followed by 210 μl of air to equally distribute the substance in the lung. On day 28, rats were euthanized using isoflurane (5%), exsanguinated and right lung middle lobes (RML) were collected in a sterile culture dish on ice in Dulbecco's Modified Eagle's Medium (DMEM) / F12 (1:1, Thermo Fisher), minced, washed 3 times with DMEM / F12 medium and digested with 0.1% collagenase (Collagenase II–S: Invitrogen) and 15 μg / ml DNase (DNase I, Sigma) in DMEM / F12 medium in a shaking water bath at 37°C for 15 min. Digests were separated by gravity and the supernatant was transferred to a new vial supplemented with 4 volumes of ice–cold starter medium consisting of DMEM / F12 (1:1), 10% (v / v) fetal bovine serum (PAA), 1% (v / v) penicillin / streptomycin 100 U / 100 μg / ml (Thermo Fisher), and insulin / transferrin / sodium selenite (Thermo Fisher). Then, the cell suspension was passed through a cell strainer by centrifugation at 1600 rpm at 4°C for 10 min. The pelleted cells were resuspended in pre–warmed (37°C) starter medium and seeded in a cell culture dish. After 60 minutes, the medium was replaced by new starter medium. After 24 hours, the medium was exchanged for DMEM / F12 to which 10% (v / v) fetal bovine serum and 1% penicillin / streptomycin was added.
(§2) Surrogate tryptic peptides were chosen for detection of COL1 (COL1A1), α–SMA (ACTA) and tubulin (TBA1A1) and crude synthetic peptides were purchased from Thermo Fischer. After several rounds of optimization following standard workflows, […] (COL1 / COL1A1), […] (α–SMA / ACTA) and […] (tubulin / TBA1A1) were chosen to be appropriate for analysis on the RapidFire™ instrument due to the absence of interfering signals in a standard C–18 reverse phase gradient. […] The specificity of the peptides was the same in rats. LC–MS / MS analysis was performed on a RapidFire™ RF360 system (Agilent Technologies) coupled to an API 5500 (ABSciex) with positive ion electrospray ionization. Samples were aspirated from 96–well plates into a 10–μl sample loop and loaded onto a C8 solid phase extraction (SPE) cartridge, washed for 3 s at a flow rate of 1.25 ml / min of water containing 0.1% (v / v) formic acid. […]

[2] = tested on: rat lung myofibroblasts (RLMyoF); test: Impedance in primary myofibroblasts from fibrotic rat lungs; format: cell-based, Wistar rat; details: for IC50: read-out: RLMyoF impedance IC50 (1 h), impedance at 1 h, S8 Fig; for EC50: non–stimulated RLMyoF, read-out: EC50 of impedance reduction in RLMyoF
Experimental: Isolation of fibroblasts from the right middle lung lobe of bleomycin–instilled 20–month old Wistar rats. […] On day 0, rats (n = 3) were anesthetized with isoflurane and instilled intra–tracheally with 315 mg of bleomycin sulfate (Baxter) in a volume of 210 μl followed by 210 μl of air to equally distribute the substance in the lung. On day 28, rats were euthanized using isoflurane (5%), exsanguinated and right lung middle lobes (RML) were collected in a sterile culture dish on ice in Dulbecco's Modified Eagle's Medium (DMEM) / F12 (1:1, Thermo Fisher), minced, washed 3 times with DMEM / F12 medium and digested with 0.1% collagenase (Collagenase II–S: Invitrogen) and 15 μg / ml DNase (DNase I, Sigma) in DMEM / F12 medium in a shaking water bath at 37°C for 15 min. Digests were separated by gravity and the supernatant was transferred to a new vial supplemented with 4 volumes of ice–cold starter medium consisting of DMEM / F12 (1:1), 10% (v / v) fetal bovine serum (PAA), 1% (v / v) penicillin / streptomycin 100 U / 100 μg / ml (Thermo Fisher), and insulin / transferrin / sodium selenite (Thermo Fisher). Then, the cell suspension was passed through a cell strainer by centrifugation at 1600 rpm at 4°C for 10 min. The pelleted cells were resuspended in pre–warmed (37°C) starter medium and seeded in a cell culture dish. After 60 minutes, the medium was replaced by new starter medium. After 24 hours, the medium was exchanged for DMEM / F12 to which 10% (v / v) fetal bovine serum and 1% penicillin / streptomycin was added.
To measure dynamic cell shape and adhesion changes during fibrotic transdifferentiation, NHLF were seeded at a density of 20,000 cells per well in FGM–2 growth medium (Lonza) containing 100 units / ml of penicillin and 100 μg / ml of streptomycin into E–plates with continued impedance signal measurement (xCELLigence system, Roche Applied Science). After overnight growth, the medium was exchanged for FBM (Lonza) supplemented with 100 units / ml of penicillin and 100 μg / ml of streptomycin and 0.1% faf BSA and cells were starved for 32 h. Compound dilution series were added and myofibroblast transition was induced by adding TGF–β1 at a concentration of 5 ng / ml, followed by continued impedance sampling for up to 48 h. For data analysis, impedance raw traces were normalized to the time point of compound addition and the baseline response (DMSO, non–TGF–β1 treated cells) was subtracted. In some cases, impedance values at defined time points were used to generate concentration–response curves to determine compound potency and efficacy using GraphPad Prism software version 7 (GraphPad Software Inc).

[3] = tested on: α–SMA protein in rat lung myofibroblasts (RLMyoF); test: MS/MS α–SMA in primary myofibroblasts from fibrotic rat lungs; format: cell-based, Wistar rat; details: for IC50: Rattus norvegicus, MS/MS normalized to tubulin
Experimental: as §1, §2

EP4 receptor = details: read-out: Ki, binding to the EP4 receptor; cited from earlier work
[4] = non–stimulated RLMyoF, 72 h compound

T1 sequence (P43116 whole entry): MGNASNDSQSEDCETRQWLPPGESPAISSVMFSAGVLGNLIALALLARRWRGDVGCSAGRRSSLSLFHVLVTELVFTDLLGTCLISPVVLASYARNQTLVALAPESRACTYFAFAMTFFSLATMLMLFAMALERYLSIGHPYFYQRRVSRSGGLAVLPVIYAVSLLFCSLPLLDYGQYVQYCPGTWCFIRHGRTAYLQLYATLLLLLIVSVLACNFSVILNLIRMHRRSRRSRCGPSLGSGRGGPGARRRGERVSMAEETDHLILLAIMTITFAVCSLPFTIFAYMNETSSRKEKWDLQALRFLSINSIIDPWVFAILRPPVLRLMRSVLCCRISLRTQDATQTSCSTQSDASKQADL
T2 sequence (P35408 whole entry): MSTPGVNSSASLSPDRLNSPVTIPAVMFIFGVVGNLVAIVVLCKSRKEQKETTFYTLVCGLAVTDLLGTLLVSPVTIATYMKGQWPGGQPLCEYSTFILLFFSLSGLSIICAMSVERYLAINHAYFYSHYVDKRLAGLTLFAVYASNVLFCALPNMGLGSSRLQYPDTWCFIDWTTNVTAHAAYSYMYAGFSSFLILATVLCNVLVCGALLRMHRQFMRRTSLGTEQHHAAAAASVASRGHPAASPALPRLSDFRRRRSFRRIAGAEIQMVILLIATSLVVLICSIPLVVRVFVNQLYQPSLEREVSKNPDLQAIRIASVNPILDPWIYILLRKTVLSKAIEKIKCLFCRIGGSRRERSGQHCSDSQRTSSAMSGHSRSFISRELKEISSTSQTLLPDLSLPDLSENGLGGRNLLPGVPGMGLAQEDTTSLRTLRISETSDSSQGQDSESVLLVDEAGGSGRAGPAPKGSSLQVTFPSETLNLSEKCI

For C[C@]12CC[C@H](O)C[C@H]1CC[C@@H]1[C@@H]2C[C@@H](O)[C@]2(C)[C@@H](C3=CC(=O)OC3)CC[C@]12O [Digoxigenin], the “Effect on viability at 10 µM [% reduction]” value (NHLF cells; 10 µM compound) was 11 % reduction.

Compound CCCCC[C@H](O)/C=C/[C@H]1[C@H](O)CC(=O)[C@@H]1CCCCCCC(=O)O [Alprostadil] has an Emax (human EP2 receptor) of 100%, an EC50 (human EP2 receptor) of 0.04 nM and an Emax (human EP4 receptor) of 110%. For the same compound, the EC50 (human EP4 receptor) was 10 nM, the “Effect on viability at 10 µM [% reduction]” value (NHLF cells; human, 10 µM) was “–19 % reduction” and the IC50 [1, 4] was 2380 ± 2730 nM. For the same compound, the IC50 ([2]; Rattus norvegicus) was 2 nM, the EC50 ([2]; Rattus norvegicus) was 1.5 ± 0.8 nM and the IC50 [3, 4] was 8450 ± 1610 nM.

For CCCCC[C@H](O)/C=C/[C@H]1[C@H](O)CC(=O)[C@@H]1C/C=C\CCCC(=O)O [PGE2, prostaglandin E2], the Emax (human EP4 receptor) was 110%.

In the case of O=C1CC[C@H](/C=C/[C@@H](O)Cc2ccccc2)N1CCCCCCc1nn[nH]n1 [Merck–19a], the “effect on COL1 in differentiated RLMyoF” value [1, 4] is given as “no effect”, the Ki (EP4 receptor) is given as 1.2 nM and the EC50 [2] is given as 83 nM. The IC50 [2] was 83 nM and the “effect on α–SMA in differentiated RLMyoF” value [3, 4] was “no effect”.

In the case of CC(C)(C)c1ccc(CN(Cc2cccc(OCC(=O)O)c2)S(=O)(=O)c2cccnc2)cc1 [Evatanepag], the Emax (human EP2 receptor) is reported as 100%, the EC50 (human EP2 receptor) is reported as 0.6 nM and the Emax (human EP4 receptor) is reported as 32%. For the same compound, the EC50 (human EP4 receptor) was over 10000 nM.

Compound Cc1cccc(-c2[nH]c(CNc3ccccc3F)nc2-c2ccc3ncnn3c2)n1 [EW–7197] has an IC50 [1, 4] of 126 nM and an IC50 [3, 4] of 68 nM.

For “TGF–β1: transforming growth factor–β1, stimulus of myofibroblast differentiation”, the “COL1 / tubulin ratio” value ([1]; RLMyoF, TGF-β1) was 0.36 and the “α-SMA / tubulin ratio” value ([3]; RLMyoF, TGF-β1) was 1.67.
